According to patent US5872124A, “Treatment of diseases of the central nervous system using uric acid as a scavenger of peroxynitrite” (Thomas Jefferson University, priority 1996, dated 1999):
Entries after “also recorded” stand apart in the source; their conditions may differ. Where two headings read alike, the source gives them in different places.

Tests used:
[1] = system: experimental allergic encephalomyelitis (EAE), PLP immunization; assay: Survival of SWXJ-14 mice with EAE; type: in vivo
Experimental: FIG. 14. Comparison of the survival of SWXJ-14 mice with EAE treated with PTIO and uric acid. SWXJ-mice were immunized with PLP in CFA as described for FIG. 12 and treated once daily with a 2 mg dose of uric acid or PTIO i.p. from day 5 to day 13, followed by two daily doses on day 14 and three daily doses thereafterward.
To more directly compare the action of PTIO and uric acid in EAE we have administered each of these agents in parallel to PLP-immunized SWXJ-14 mice. In these experiments the mice were immunized with PLP and treated with increasing doses of PTIO or uric acid beginning at day 5 after immunization.

[2] = system: experimental allergic encephalomyelitis (EAE), PLP immunization; assay: Clinical severity of PLP-induced EAE in SWXJ-14 mice; type: in vivo
Experimental: FIG. 2. Effect of daily administration of c-PTIO (carboxy-PTIO) on EAE in SWXJ-14 mice. EAE was induced in SWJX-14 mice by two subcutaneous immunizations (d.0 and d.7) of […] PLP in CFA over two injection sites. Mice (N=3) were treated beginning on day 5 post-immunization with 2 mg/mouse c-PTIO […] i.p. and was continued until day 16 post-immunization (day 0 being the day of first immunization). Mean severity scores were graded as detailed in Table 1.
FIG. 4. Effect of D609 on the development of EAE in SWXJ-14 mice. SWXJ-mice were immunized with PLP as detailed for FIG. 2. Mice (n=2) were treated i.p. with 1 mg/mouse D609 from day 5 through day 14 post-immunization. Mean severity scores were graded as detailed in Table 1.
FIG. 12. Effect of the administration of various doses of uric acid on EAE in SWXJ-14 mice. EAE was induced in SWXJ-14 mice by two subcutaneous immunizations (d.0 and 7) of […] PLP in CFA over two injection sites. Mice (n=5) were treated once daily, beginning on day 5 post-immunization, with the indicated doses of uric acid. Mean severity scores were graded as detailed in Table 1.
(§1) Induction of EAE in rats by adoptive transfer of MBP-specific T cells or in SJL or SWXJ-14 mice by immunization with MBP or PLP 139-151, a peptide derived from […] [8], results in variable disease. We have scored the clinical systems of EAE as tabulated below.
(§2) Severity scores and symptoms of Experimental Allergic
(§3) 1 piloerection, tail weakness
(§4) 3 hind limb weakness/paralysis
(§5) 4 hind and forelimb paralysis
(§6) In FIG. 1, EAE was elicited in 11 week old female Lewis rats by the adoptive transfer of 20×10^6 cells of the MBP-specific line 5HGBP.G5 activated by stimulation with MBP and syngeneic APC 48 hours previously and NO levels measured 5 days after transfer. In SWXJ-14 mice, EAE was triggered by two subcutaneous immunizations (d.0 and 7) with 100 μg PLP in CFA over two injection sites, and NO levels measured 18 days later. Results expressed represent the mean values obtained from a minimum of 4 animals. Peak severity of the symptoms of EAE ranged from 2-3 for the rats and 4-5 for the mice. NO was semi-quantitated using spin trapping with DETC and EPR-spectroscopy as described previously.
(§7) Clinical symptoms manifest as an ascending paralysis approximately 13 days after immunization and the disease rapidly progresses to its fatal endpoint by day 16-20. […] NO levels in the brains and spinal cords of animals treated with a single daily dose of PTIO were semi-quantitated by spin trapping and EPR spectroscopy on day 17 after immunization, one day after treatment was terminated. […] We expect that the removal of NO by PTIO should not necessarily interfere with the induction of the response responsible for NO production and that as the supplied PTIO is used up NO levels should rapidly return to control values.
(§8) In contrast to SJL mice, SWX mice immunized with PLP undergo a progressive,often fatal form of EAE. Clinical symptoms manifest as an ascending paralysis approximately 13 days after immunization and the disease rapidly progresses to its fatal endpoint by days 16-20. […] We conclude that the amount of carboxy-PTIO we administered, especially considering the short in vivo half life of the compound, was only sufficient to delay the onset of the EAE in the SWXJ-14 mouse.
NO is not universally considered to be a molecule with significant in vivo toxicity and peroxynitrite is thought to be the more toxic molecule produced by activated inflammatory cells resulting from the interaction of NO and superoxide. We would henceforth expect that removal of NO would reduce peroxynitrite formation. To determine whether NO or peroxynitrite is more likely to be ultimately responsible for clinical disease in EAE we have performed a series of experiments using uric acid, a known scavenger of peroxynitrite, to treat EAE induced in SWXJ-14 mice by immunization with PLP.

[3] = system: nitric oxide (NO); assay: NO levels in brain and spinal cord of SWXJ-14 mice with EAE (spin trapping with DETC, EPR); type: in vivo
Experimental: FIG. 3. Effect of daily administration of c-PTIO on NO levels in the brain and spinal cord of SWXJ-14 mice immunized with PLP. SWXJ-14 mice were immunized as described below for FIG. 1. Beginning 4 days post immunization, mice (n=7) were treated with 2 mg c-PTIO given i.p. until 16 days post-immunization. Mean severity scores were graded as detailed in Table 1. Mean nitric oxide levels in brain and spinal cord were semi-quantitated using spin-trapping with DETC and EPR spectroscopy at 17 days post-immunization as described elsewhere. (For brain or spinal cord results are represented as follows: Left hand column: untreated. Center column: treated with c-PTIO. Right hand column: no EAE control)
FIG. 13. Effect of the administration of uric acid on brain and spinal cord NO levels and the clinical severity of EAE in SWXJ-14 mice. SWXJ-14 mice were immunized with PLP in CFA as described for FIG. 12 and treated once daily with the indicated doses of uric acid i.p. At day 16 post-immunization the animals were euthanized and NO levels in brain and spinal cord assessed as detailed for FIG. 3. Results are for individual mice. Each central white column represents the spinal cord NO level. The black column to the left of a white column represents the clinical severity score. The cross hatched column to the right of a white column represents the brain NO level.
as §6, §7, §8
At 16 days after immunization, several mice from each group were euthanized so that NO levels in their brains and spinal cords could be measured using spin-trapping and EPR spectroscopy.

[4] = rats, i.v. or i.p., estimated; cited from earlier work
[5] = system: experimental allergic encephalomyelitis (EAE), MBP-specific T cell transfer; assay: Clinical severity of adoptive transfer EAE in Lewis rats; type: in vivo; conditions: EAE mediated by T cell transfer
Excerpt: as §1
______________________________________
as §2, §3, §4, §5, §6
Rats were injected i.v. with 20×10^6 MBP-specific CD4 T cells activated in vitro. Two days later the animals were treated with a single dose of either PTIO (20 mg) or a mixture of PTIO (20 mg), indomethacin (1 mg), and allopurinol (13 mg). Treatment was continued on a daily basis until day 4 and animals were sacrificed for NO measurement the following day.

[6] = system: nitric oxide (NO); assay: NO levels in spinal cord and brain of SJL mice with EAE; type: in vivo
Experimental: (§9) SJL mice are immunized subcutaneously with pMBP in adjuvant to induce EAE, from which they often recover. Commencing ten days post-immunization, groups of mice (n=6) were treated once daily with 2 mg of either PTIO or carboxy-PTIO intraperitoneally and observed for clinical signs of EAE which were graded as detailed in Table 1. […] At 18 days […], NO determinations were performed in several mice from each group.

[7] = system: experimental allergic encephalomyelitis (EAE), immunization-elicited; assay: Clinical severity of immunization-elicited EAE in SJL mice; type: in vivo
Excerpt: as §1, §2, §3, §4, §5, §9

[8] = mice, i.v. or i.p., estimated; cited from earlier work
[9] = Water solubility; type: physicochemical
[10] = system: iNOS gene; assay: Transcriptional activation of the iNOS gene in RAW 264.7 cells (gel-shift assays); type: cell-based; conditions: 50 μg/ml, mouse RAW 264.7 cells
[11] = system: A549 cells; assay: Nitrite production by activated A549 cells (Griess reaction); type: cell-based, human; conditions: 50 μg/ml; IL-1β, γIFN, TNFα activated
Experimental: FIG. 5. […] The accumulation of nitrite over time was measured in the presence and absence of D609. Human A549 cells were activated with IL-1β (100 units/ml), γIFN (500 units/ml) and TNFα (10 ng/ml), and the accumulation of nitrite over time was measured using the Griess reaction. The concentration of nitrite was calculated using a standard solution of nitrite in culture media.
We have employed the human lung carcinoma cell line A549 (ATCC) and, as for comparison, the mouse monocyte-macrophage cell line RAW 264.7 (ATCC) as producers of NO. Treatment of RAW 264.7 cells with 1 μg/ml of LPS or A549 cells with IL-1β (100 units/ml), γIFN (500 units/ml), and TNFα (10 ng/ml) stimulates the production of NO which can be detected by the accumulation of nitrite in culture supernatants. Using these methods of stimulation, RAW cells produced up to 100 μM of nitrite during 24 hours of culture while the A549 cells generally produced roughly 10 fold less nitrite in our experiments.

[12] = system: NF-κB; assay: Activation of transcription factor NF-κB in RAW 264.7 cells; type: cell-based; conditions: 50 μg/ml, mouse RAW 264.7 cells
[13] = system: phosphatidylcholine-specific phospholipase C (PC-PLC); conditions: via blocking activation of PC-PLC [16]; cited from earlier work
[14] = system: iNOS gene; assay: Transcriptional activation of the iNOS gene in A549 cells (gel-shift assays); type: cell-based; conditions: 50 μg/ml, human A549 cells
[15] = system: NF-κB; assay: Activation of transcription factor NF-κB in A549 cells; type: cell-based; conditions: 50 μg/ml, human A549 cells
[16] = day 17 after immunization, one day after treatment ended
[17] = single daily dose of 100 mg/kg, day 17

Oc1nc(O)c2[nH]c(O)nc2n1 [uric acid, 2,6,8-trihydroxypurine]
Improvement in clinical signs of surviving mice (FIG. 14) ([1]; at termination of the experiment): a number were actually beginning to show some improvement in the clinical signs of their disease | Mice still alive (FIG. 14) ([1]; several days after day 18, 2 mg i.p. once daily day 5-13, two doses day 14, then three daily): 80% | Mice remaining healthy (FIG. 12) ([2]; high dose of uric acid): The majority of the mice treated with a high dose of uric acid remained healthy throughout the length of the experiment | Onset and severity of clinical symptoms of EAE (FIG. 12) ([2]; uric acid once daily from day 5 post-immunization): delays the onset and severity of the clinical symptoms of EAE in these animals in a dose dependent fashion | NO levels in spinal cord and brain (FIG. 13) ([3]; day 16, mice that failed to show symptoms of EAE): significant levels of NO were detected in spinal cord and brain

CC1(C)N([O])C(c2ccc(C(=O)O)cc2)=[N+]([O-])C1(C)C [carboxy-PTIO, 2-(4-carboxyphenyl)-4,4,5,5-tetramethylimidazoline-1-oxyl-3-oxide]
Biological half-life in blood [4]: less than five | Treatment of EAE mediated by T cell transfer [5]: successfully treated | Brain NO increase (FIG. 8) ([6]; 2 mg once daily i.p., day 18): also inhibited | NO levels in spinal cord (FIG. 8) ([6]; 2 mg once daily i.p., day 18): lower in the spinal cords | Levels of NO in spinal cord ([6]; SJL mice, i.p. administration): reduce levels of NO detected in spinal cord | NO-spinal cord ([6]; SJL mouse - immunization EAE, Table 2): 1.4 mM | Overall NO production and therapeutic effect in SWXJ-14 mice ([2]; carboxy-PTIO administration): limited NO production to the spinal cord and had a clear therapeutic effect | Onset and severity of clinical symptoms of EAE (FIG. 9) ([2]; single daily dose of 100 mg/kg): delays the onset and reduces the severity of the clinical symptoms of EAE | Onset and severity of clinical symptoms of EAE (FIG. 2) ([2]; two daily doses of 100 mg/kg): delays the onset and reduces the severity of the clinical symptoms of EAE | Clinical course of EAE (FIG. 11) ([2]; two daily doses of approximately 2 mg): dramatically improves the clinical course of EAE by comparison with a single daily dose | NO levels in brain (FIG. 3) [3, 16]: low levels of NO in brain tissue compared to untreated PLP-immunized controls | NO levels in spinal cord (FIG. 3) [3, 16]: somewhat less than the spinal cord NO levels detected in the surviving untreated animals | NO induction in brain (FIG. 10) [3, 17]: prevented the induction of NO in brain | NO levels in spinal cord (FIG. 10) [3, 17]: somewhat less than the spinal cord NO levels detected in the surviving untreated animals | Onset and severity of EAE (FIG. 7) ([7]; 2 mg once daily i.p. from day 10 post-immunization, n=6): delayed onset of disease and somewhat lessened severity by comparison with untreated animals | Clinical symptoms of EAE ([7]; SJL mice, i.p. administration): forestall the appearance of clinical symptoms of EAE | Clinical severity ([7]; SJL mouse - immunization EAE, severity score 1-5, Table 2): 0.7 | Biological half-life in blood [8]: less than five | Water solubility [9]: water soluble

S=C(S)OC1CC2CC1C1CCCC21 (stereo not shown) [D609, tricyclodecan-9-yl-xanthogenate]
Transcriptional activation of the iNOS gene [10]: inhibits the transcriptional activation of the iNOS gene | Nitrite production by A549 cells (FIG. 5) [11]: completely inhibited nitrite production; also recorded: inhibits nitrite production | Onset of clinical symptoms of EAE (FIG. 4) ([2]; 1 mg daily i.p., day 5-14): delays the onset of the clinical symptoms of EAE | Activation of transcription factor NF-κB [12]: inhibits | Induction of iNOS [13]: inhibits the induction of iNOS by blocking the activation of phosphatidylcholine-specific phospholipase C (PC-PLC) | Transcriptional activation of the iNOS gene [14]: inhibits the transcriptional activation of the iNOS gene | Activation of transcription factor NF-κB [15]: inhibits
